We go through 14 compounds from PMC7996082, “The translocator protein ligands as mitochondrial functional modulators for the potential anti-Alzheimer agents” (Journal of Enzyme Inhibition and Medicinal Chemistry, 2021).

Like-named read-outs stand apart in the source and are kept apart here.

The target in data set [1] is TSPO. The following applies: cited from earlier work.
A short description of data set [2]: MTT assay: HT22 cell viability with compound alone. The following applies: mouse, HT22 cells; HT22 cell viability after 24 h of treatment with 5 μM compound, no Aβ. The data set is classed as cell-based, mouse. In short, it runs like this:
(§1)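 Viability is by MTT read-out at 560 nm after 2 h MTT and 2 h acidified Triton X-100/isopropanol solubilisation at 37 °C. Before that, cells plated 24 h earlier (5,000/well) received compound (5 µM solution) for 24 h at 37 °C. Values are referenced to 5 µM DMSO vehicle set as […].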
(Formazan colour is commonly taken as a measure of viable cells.)

Data set [3] concerns HT22 cells treated with Aβ. The data set is described as follows: Cellular ROS assay (DCFDA): inhibition of Aβ-induced ROS generation. The data set is classed as cell-based, mouse. The following applies: for inhibition at 5 µM: Mus musculus, HT-22, 5 μM compound; for ROS Inhibition (%): 5 μM compound. How it is done:
Among 56 compounds, 23 compounds were selected and further tested for the luciferase-based ATP assay. […] Thus, we chose these two compounds and further evaluated their biological activity by measuring cell viability and reactive oxygen species (ROS) production. The effects on cell viability of each compound under Aβ-induced cytotoxicity were determined by measuring the metabolic activity of NAD(P)H-dependent cellular oxidoreductases using the 3–(4,5-dimethylthiazol-2-yl)-2,5-diphenyl-tetrazolium bromide (MTT) dye. To measure cellular ROS levels, we used a fluorescence indicator, 2′,7′-dichlorofluorescein diacetate (DCFDA), and calculated the percent inhibition of ROS generation by applying the same method used for MTT assays. Compound 7 inhibited Aβ-induced ROS generation (97% at 5 µM) almost to the level of the untreated control (Table 1). […] On the basis of the in vitro activity, we selected compound 7 as the best hit from the initial screening library.

Data set [4] relates to HT22 cells. The data set is described as follows: MTT assay: HT22 cell viability with compound alone. The data set is classed as cell-based, mouse. The following applies: HT22 cell viability after 24 h of treatment with 5 μM compound, no Aβ. The essentials:
as §1

Data set [5] relates to acute AD model mice (Aβ1-42 ICV injected ICR mice). In words: Y-maze spontaneous alternation test in acute AD model mice. The data set is classed as in vivo, mouse. Conditions: 30 mg/kg daily, 6 days, i.p. How it is done:
(§2) The acute AD mice model was prepared by administration of Aβ1-42 solution (10% DMSO/90% PBS) to male ICR mice (6 weeks old, 30 − 33 g) via intracerebroventricular (ICV) injection (Aβ1-42 dose: 500 pmol/mouse) as described previously. The wild type mice (B6C3F1) and double APP/PS1 transgenic mice (Tg AD mice model; APPswe/PSEN1dE9) were purchased from Jackson Laboratory (Bar Harbour, ME, USA). The Tg AD model mice were 11 months old at the beginning of the behaviour test, and were housed for 1 month in a room under controlled temperature and fed ad libitum. The behaviour tests were conducted during daytime in air-controlled and soundproof experiment room. The animal experiments were abided by the guidelines of the Institutional Animal Care and Use Committee of Korea Institute of Science and Technology.
To the mice of the acute AD model (n = 7 per group), each test compound (test compound in 20% cyclodextrin, 30 mg/kg) was […] injected daily for 6 days. The Y-maze spontaneous alternation test was performed 1 day after the administration of each test compound. The Y maze was made of three equally spaced black plastic arms (40 L × 10 W × 12 H cm) positioned at an equal angle. Each mouse was placed at the end of one arm and allowed to move freely through the maze for 8 min, and the sequence of arm entries was recorded. The arm entry of the mouse was counted when the all four limbs were within an arm. A set of entries into all three arms is considered as a spontaneous alternation. The spontaneous alternation (%) was calculated by the following equation: Spontaneous alternation (%)=100x[number of alternations/(total number of arm entries – 2)]
We evaluated in vivo activity of 7 and 14 in an acute AD mouse model. The acute AD model mice were generated by the administration of Aβ1-42 peptide (500 pmol) according to the previously reported method, and each compound (30 mg/kg daily) was administered intraperitoneally for 6 days. Piracetam (30 mg/kg daily) was also administered in parallel for comparison. The Y-maze spontaneous alternation tests were performed to measure the recovery of learning and memory deficit in acute AD model mice[38]^,[39]. […] We believe that the treatment of 7 was beneficial for ameliorating Aβ-induced cognitive impairments.

Data set [6] relates to transgenic AD model mice (APPswe/PSEN1dE9). The data set is described as follows: Y-maze spontaneous alternation test in transgenic AD model mice. The data set is classed as in vivo, mouse. Conditions: Tg APPswe/PSEN1dE9 mice, 30 mg/kg daily, 1 month, PO.
The test system is the same in data set [7]. The data set is described as follows: Contextual fear conditioning test in transgenic AD model mice. The data set is classed as in vivo, mouse. Conditions: Tg AD model mice, 30 mg/kg daily, 1 month, PO; 30 mg/kg. How it is done: as §2
To the Tg mice of the AD model (n = 7 per group), each test compound (30 mg/kg) was orally administrated daily for 1 month. […] Freezing response was measured by the fear conditioning system without application of CS or US.
In addition, we assessed recovery effects of compound 7 by performing contextual fear conditioning tests.[40] Healthy mice show higher number of total freezing, which is an index of fear learning and memory of rodents; therefore, the number of total freezing responses under fear-relevant stimuli was measured with the compound-treated Tg AD model mice. […]

In data set [8] the test system is HT-22 (mouse hippocampal cells) cells treated with Aβ. The data set is described as follows: JC-1 assay: recovery of mitochondrial membrane potential (ΔΨm) after Aβ. The data set is classed as cell-based. Conditions: 5 μM compound, 5 μM Aβ, HT22 cells; 0% = Aβ-induced damaged condition, 100% = normal condition. The method, then: Thirty thousand HT-22 cells per well were seeded into a clear 96-well plate (FALCON) at 200 µL per well one day prior to assay. 750 mM of JC-1 (Stratagene) in DMSO stock solution was dissolved into phenol red-free Opti-MEM (GIBCO) medium to make final concentration of 7.5 mM JC-1 per well. Medium was removed from the plate, and 100 µL per well of JC-1 was added. The sample plates were incubated for 1 h and 15 min at 37 °C and washed twice with 100 µL per well of PBS. Subsequently, cells were treated with a 25 µL solution of each compound at 10 µM in Opti-MEM and incubated at 37 °C for 10 min followed by addition of a 25 µL of Aβ (American peptide, 1-42) solution at 10 µM. Fluorescence was measured at every one hour for three hours at ex/em 530 nm/580 nm (“red”) and ex/em 485 nm/530 nm (“green”) by using the Flexstation® 3 (Molecular Devices, USA) reader. The ratio of green to red fluorescence was calculated and normalised by taking the percent changes using vehicle control as 100%.
The selected 56 compounds were purchased and tested by in vitro cell-based assays. Four different cell-based assays (JC-1, MTT, ATP production, and cellular ROS assays) were carried out sequentially. First, the JC-1 assay was performed to screen all 56 compounds, VH001–VH056 (Supplementary Table S1). Since mitochondrial membrane depolarisation is one of the distinct signs of mPTP opening, the mitochondrial uptake of a fluorescent JC-1 dye (5,59,6,69-tetrachloro-1,19,3,39-tetraethylbenzimidazolocarbocyanine iodide) was measured to evaluate the effects of each compound on the mitochondrial membrane potential (ΔΨm). HT22 cells, a mouse hippocampal cell line, were treated with 5 µM of Aβ, incubated with each compound at the same concentration of 5 µM, and subsequently treated with JC-1. On the basis of changes in the red/green fluorescence intensity ratio between the cells treated with Aβ and control, the percent recovery of ΔΨm for each compound was calculated and normalised to the ΔΨm of healthy cells as 100%.
Compd Structure ∆Ψm at 5 Compd Structure ∆Ψm at 5 […]
a After the treatment of each compound (5 μM) and Aβ (5 μM) in HT22 cell, the increase of fluorescence ratio (green/red) was measured and normalized by taking the change of the ratio between 0% (Aβ-induced damaged condition) and 100% (normal condition in the absence of Aβ).

For orientation: Ki means a dissociation constant, usually derived from enzyme kinetics or from competition with a known ligand. What is called IC50 is the point on the concentration scale where inhibition reaches its midpoint. One may read the viability as a read-out of living cells in per cent, often relative to untreated cells. One may read the inhibition as the change of the read-out against control, counted positive when it falls.

With `CCCCCCN(CCCCCC)C(=O)Cc1c(-c2ccc(F)cc2)[nH]c2ccccc12` [Compound 1, 2–(2-(4-fluorophenyl)-1H-indol-3-yl)-N,N-dihexylacetamide], the Ki in data set [1] (TSPO binding affinity ref 29) was 3.25 nM.

For `CCCCN(CCCC)C(=O)Cc1c(-c2ccc(Cl)cc2)nc2c(Cl)cc(Cl)cn12` [Compound 2, N,N-dibutyl-2–(6,8-dichloro-2–(4-chloro-phenyl)imidazo[1,2-a]pyridin-3-yl)acetamide], the Ki in data set [1] (TSPO binding affinity ref 30) is 2.68 nM.

On to `CC(=O)N(Cc1ccccc1OC(C)C)c1ccc(Cl)cc1Oc1ccccc1` [Compound 3, N-(4-chloro-2-phenoxyphenyl)-N-(2-isopropoxybenzyl)acetamide], for which, in data set [1] (TSPO binding affinity ref 31), the IC50 is 0.92 nM.

For the compound `COc1ccc(OC)c(CN(C(C)=O)c2cc(F)ccc2Oc2ccccc2)c1` [Compound 4, N-(2,5-dimethoxybenzyl)-N-(5-fluoro-2-phenoxyphenyl)acetamide], in data set [1] (TSPO binding affinity ref 31), the IC50 was 1.6 nM.

For `CN1C(=O)CN=C(c2ccc(Cl)cc2)c2cc(Cl)ccc21` [Compound 5, 7-chloro-5–(4-chlorophenyl)-1-methyl-1,3-dihydro-2H-benzo[e][1,4]diazepin-2-one], the inhibition constant (Ki) in data set [1] (TSPO binding affinity ref 32) is 1.02 nM.

As for `CCC(C)N(C)C(=O)c1cc2ccccc2c(-c2ccccc2Cl)n1` (centres unmarked) [Compound 6, N-(sec-butyl)-1–(2-chlorophenyl)-N-methylisoquinoline-3-carboxamide], the IC50 in data set [1] (TSPO binding affinity ref 33) was […].

With `COc1ccc(CNC(=O)C(c2cccnc2)N(C(=O)c2csnn2)c2ccc(C(C)(C)C)cc2)cc1` (centres unmarked) [Compound 8], the viability at 24 h, 5 µM in data set [2] was found to be 34%. For the same compound, in data set [3], the inhibition at 5 µM is -10%.

For `CCOc1ccc(-n2c(SC)nc3sc4c(c3c2=O)CCN(C(C)=O)C4)cc1` [Compound 10], in data set [4], the “MTT Viability (%)” value was determined as 87%. Besides, the “ROS Inhibition (%)” value in data set [3] is −177%.

As for `CCOc1ccc(-n2c(SCC(C)C)nc3sc4c(c3c2=O)CCN(C(C)=O)C4)cc1` [Compound 11], the “ROS Inhibition (%)” value in data set [3] is listed as −234%.

As for `NC(=O)CN1CCCC1=O` [Piracetam, piracetam, reference compound], the viability at 24 h, 5 µM in data set [2] was 132%. Further, in data set [3], the inhibition at 5 µM came to 129%. Moreover, the “Recovery of Y-maze spontaneous alternations” value in data set [5] was 20%; in data set [6] it was 33%. Further, the “Contextual fear conditioning: percent recovery of freezing” value in data set [7] is reported as −2%.

Take `CC(C)CN(CCCNC(=O)c1cc(Nc2ccccc2)nc2ccccc12)CC(C)C` [VH027]: the “Recovery of ΔΨm (%)” value in data set [8] was 25%.

Consider `COc1ccc(CNC(=O)c2cc(OCc3ccc(C)cc3)nc3ccccc23)c(OC)c1` [VH028], for which the “Recovery of ΔΨm (%)” value in data set [8] was 51%.

For the compound `CCc1ccc(Nc2cc(C(=O)NCCc3cccc(C)c3)c3ccccc3n2)cc1` [VH029], the “Recovery of ΔΨm (%)” value in data set [8] amounted to 18%.

For `CCOc1ccc(-c2cc(C(=O)NCC(C)CN(CC)CC)c3ccccc3n2)cc1` (centres unmarked) [VH030], the “Recovery of ΔΨm (%)” value in data set [8] amounted to 60%.
